# Data from patent EP1096933B1, “USE OF AN INHIBITOR OF CYTOCHROME P450 OPTIONALLY COMBINED WITH AN ANTIFUNGAL AGENT FOR TREATING MYCOSES” (priority 1998, dated 2000).
# Where two headings read alike, the source gives them in different places.
# Legend:
# Assay in all cases: growth of strains streaked on Sabouraud agar containing the products
# Type in all cases: cell-based
# [1] = test system: Trichophyton mentagrophytes; details: Tric.Mentagophytes; for activity at 20 µg/mL: read-out: % DE CROISSANCE; for inhibition at 2 µg/mL / inhibition at 10 µg/mL / inhibition at 20 µg/mL / inhibition at 50 µg/mL: read-out: inhibition de la croissance
# Experimental: (§1) Ces molécules ont été incorporées dans un milieu gélosé dit de Sabouraud (peptone 10g/l, glucose 10 g/l, gomme agar 15 g/l).
# (§2) Des souches de diverses espèces de champignons ont été ensemencées par stries par la méthode de Stires.
# (§3) Le pourcentage de croissance a été mesuré au cours du temps, pour des périodes allant jusqu'à 21 jours, pour certaines des souches testées.
# (§4) Les quantités de pipéronyl butoxyde, et de cyclopyroxolamine utilisées sont identiques et sont de 10 ou 20 µg/ml dans le cas de l'association entre ces deux composés.
# (§5) Dans le cas de l'association entre le pipéronyl butoxyde et l'éconazole, elles sont respectivement de 10 ou 20 µg/ml de pipéronyl butoxyde et de 1 µg/ml d'éconazole.
# (§6) Des souches appartenant aux espèces suivantes ont été testées: Microsporum canis, Trichophyton rubrum, Trichophyton interdigitale, Trichophyton mentagrophytes, Microsporum persicolor, Epidermophyton floccosum, Trichophyton violaceum et Trichophyton soudanense.
# (§7) L'activité du pipéronyl butoxyde seul a été testée à diverses concentrations, comme indiqué dans le tableau 1 sur le milieu de Sabouraud, dépourvu de tout autre fongicide.
# Trichophyton soudanense = details: Tric.Soudanese; for activity at 10 µg/mL: read-out: % DE CROISSANCE; for inhibition at 2 µg/mL / inhibition at 10 µg/mL / inhibition at 20 µg/mL / inhibition at 50 µg/mL: read-out: inhibition de la croissance
# Experimental: as §1, §2, §3, §4, §5, §6, §7
# Epidermophyton floccosum = details: Epid.Flocosum; for activity at 10 µg/mL: read-out: % DE CROISSANCE; for inhibition at 2 µg/mL / inhibition at 10 µg/mL / inhibition at 20 µg/mL / inhibition at 50 µg/mL: read-out: inhibition de la croissance
# Experimental: as §1, §2, §3, §4, §5, §6, §7
# [2] = test system: Trichophyton interdigitale; details: Tric.Interdigitale; for activity at 20 µg/mL: read-out: % DE CROISSANCE; for inhibition at 2 µg/mL / inhibition at 10 µg/mL / inhibition at 20 µg/mL / inhibition at 50 µg/mL: read-out: inhibition de la croissance
# Experimental: as §1, §2, §3, §4, §5, §6, §7
# Trichophyton rubrum = details: Tric.Rubrum; for activity at 20 µg/mL: read-out: % DE CROISSANCE; for inhibition at 2 µg/mL / inhibition at 10 µg/mL / inhibition at 20 µg/mL / inhibition at 50 µg/mL: read-out: inhibition de la croissance
# Experimental: as §1, §2, §3, §4, §5, §6, §7
# Microsporum canis = details: for activity at 20 µg/mL: read-out: % DE CROISSANCE; for inhibition at 2 µg/mL / inhibition at 10 µg/mL / inhibition at 20 µg/mL / inhibition at 50 µg/mL: Micro. Canis, read-out: inhibition de la croissance
# Experimental: as §1, §2, §3, §4, §5, §6, §7
# Microsporum persicolor = details: Nannizzia persicolor, Micro.Persicolor; for activity at 10 µg/mL: 10µg/ml each product, read-out: % DE CROISSANCE; for inhibition at 2 µg/mL / inhibition at 10 µg/mL / inhibition at 20 µg/mL / inhibition at 50 µg/mL: read-out: inhibition de la croissance
# Experimental: as §1, §2, §3, §4, §5, §6, §7
# [3] = 144 h, J6, 20µg/ml each product
# [4] = 240 h, J10, 20µg/ml each product
# [5] = 336 h, J14, 20µg/ml each product
# [6] = 144 h, J6, 10µg/ml each product
# [7] = 240 h, J10, 10µg/ml each product
# [8] = 336 h, J14, 10µg/ml each product
smiles,measurement,setting,value
"CCCCOCCOCCOCc1cc2c(cc1CCC)OCO2 [Piperonyl., pipéronyl butoxyde]",activity at 20 µg/mL,"[1]; 0 h, J0, 20µg/ml each product",0%
same,activity at 20 µg/mL,"[1]; 96 h, J4, 20µg/ml each product",0%
same,activity at 20 µg/mL,[1]; [3],25%
same,activity at 20 µg/mL,[1]; [4],60%
same,activity at 20 µg/mL,[1]; [5],65%
same,inhibition at 2 µg/mL,"[1]; J+4, 2 µg/ml",30%
same,inhibition at 10 µg/mL,"[1]; J+4, 10 µg/ml",10%
same,inhibition at 20 µg/mL,"[1]; J+4, 20 µg/ml",0%
same,inhibition at 50 µg/mL,"[1]; J+4, 50 µg/ml",0%
same,inhibition at 2 µg/mL,"[1]; J+10, 2 µg/ml",80%
same,inhibition at 10 µg/mL,"[1]; J+10, 10 µg/ml",60%
same,inhibition at 20 µg/mL,"[1]; J+10, 20 µg/ml",60%
same,inhibition at 50 µg/mL,"[1]; J+10, 50 µg/ml",0%
same,inhibition at 2 µg/mL,"[1]; J+14, 2 µg/ml",100%
same,inhibition at 10 µg/mL,"[1]; J+14, 10 µg/ml",70%
same,inhibition at 20 µg/mL,"[1]; J+14, 20 µg/ml",65%
same,inhibition at 50 µg/mL,"[1]; J+14, 50 µg/ml",0%
same,activity at 10 µg/mL,"Trichophyton soudanense; 0 h, J0, 10µg/ml each product",0%
same,activity at 10 µg/mL,"Trichophyton soudanense; 96 h, J4, 10µg/ml each product",0%
same,activity at 10 µg/mL,Trichophyton soudanense; [6],10%
same,activity at 10 µg/mL,Trichophyton soudanense; [7],10%
same,activity at 10 µg/mL,Trichophyton soudanense; [8],25%
same,inhibition at 2 µg/mL,"Trichophyton soudanense; J+4, 2 µg/ml",25%
same,inhibition at 10 µg/mL,"Trichophyton soudanense; J+4, 10 µg/ml",0%
same,inhibition at 20 µg/mL,"Trichophyton soudanense; J+4, 20 µg/ml",0%
same,inhibition at 50 µg/mL,"Trichophyton soudanense; J+4, 50 µg/ml",0%
same,inhibition at 2 µg/mL,"Trichophyton soudanense; J+10, 2 µg/ml",80%
same,inhibition at 10 µg/mL,"Trichophyton soudanense; J+10, 10 µg/ml",10%
same,inhibition at 20 µg/mL,"Trichophyton soudanense; J+10, 20 µg/ml",0%
same,inhibition at 50 µg/mL,"Trichophyton soudanense; J+10, 50 µg/ml",0%
same,inhibition at 2 µg/mL,"Trichophyton soudanense; J+14, 2 µg/ml",100%
same,inhibition at 10 µg/mL,"Trichophyton soudanense; J+14, 10 µg/ml",25%
same,inhibition at 20 µg/mL,"Trichophyton soudanense; J+14, 20 µg/ml",0%
same,inhibition at 50 µg/mL,"Trichophyton soudanense; J+14, 50 µg/ml",0%
same,activity at 10 µg/mL,"Epidermophyton floccosum; 0 h, J0, 10µg/ml each product",0%
same,activity at 10 µg/mL,"Epidermophyton floccosum; 96 h, J4, 10µg/ml each product",0%
same,activity at 10 µg/mL,Epidermophyton floccosum; [6],10%
same,activity at 10 µg/mL,Epidermophyton floccosum; [7],45%
same,activity at 10 µg/mL,Epidermophyton floccosum; [8],70%
same,inhibition at 2 µg/mL,"Epidermophyton floccosum; J+4, 2 µg/ml",15%
same,inhibition at 10 µg/mL,"Epidermophyton floccosum; J+4, 10 µg/ml",0%
same,inhibition at 20 µg/mL,"Epidermophyton floccosum; J+4, 20 µg/ml",0%
same,inhibition at 50 µg/mL,"Epidermophyton floccosum; J+4, 50 µg/ml",0%
same,inhibition at 2 µg/mL,"Epidermophyton floccosum; J+10, 2 µg/ml",90%
same,inhibition at 10 µg/mL,"Epidermophyton floccosum; J+10, 10 µg/ml",45%
same,inhibition at 20 µg/mL,"Epidermophyton floccosum; J+10, 20 µg/ml",25%
same,inhibition at 50 µg/mL,"Epidermophyton floccosum; J+10, 50 µg/ml",0%
same,inhibition at 2 µg/mL,"Epidermophyton floccosum; J+14, 2 µg/ml",100%
same,inhibition at 10 µg/mL,"Epidermophyton floccosum; J+14, 10 µg/ml",70%
same,inhibition at 20 µg/mL,"Epidermophyton floccosum; J+14, 20 µg/ml",30%
same,inhibition at 50 µg/mL,"Epidermophyton floccosum; J+14, 50 µg/ml",0%
same,activity at 20 µg/mL,"[2]; 0 h, J0, 20µg/ml each product",0%
same,activity at 20 µg/mL,"[2]; 96 h, J4, 20µg/ml each product",5%
same,activity at 20 µg/mL,[2]; [3],25%
same,activity at 20 µg/mL,[2]; [4],60%
same,activity at 20 µg/mL,[2]; [5],70%
same,inhibition at 2 µg/mL,"[2]; J+4, 2 µg/ml",30%
same,inhibition at 10 µg/mL,"[2]; J+4, 10 µg/ml",15%
same,inhibition at 20 µg/mL,"[2]; J+4, 20 µg/ml",5%
same,inhibition at 50 µg/mL,"[2]; J+4, 50 µg/ml",0%
same,inhibition at 2 µg/mL,"[2]; J+10, 2 µg/ml",80%
same,inhibition at 10 µg/mL,"[2]; J+10, 10 µg/ml",70%
same,inhibition at 20 µg/mL,"[2]; J+10, 20 µg/ml",60%
same,inhibition at 50 µg/mL,"[2]; J+10, 50 µg/ml",0%
same,inhibition at 2 µg/mL,"[2]; J+14, 2 µg/ml",100%
same,inhibition at 10 µg/mL,"[2]; J+14, 10 µg/ml",80%
same,inhibition at 20 µg/mL,"[2]; J+14, 20 µg/ml",70%
same,inhibition at 50 µg/mL,"[2]; J+14, 50 µg/ml",0%
same,activity at 20 µg/mL,"Trichophyton rubrum; 0 h, J0, 20µg/ml each product",0%
same,activity at 20 µg/mL,"Trichophyton rubrum; 96 h, J4, 20µg/ml each product",0%
same,activity at 20 µg/mL,Trichophyton rubrum; [3],20%
same,activity at 20 µg/mL,Trichophyton rubrum; [4],35%
same,activity at 20 µg/mL,Trichophyton rubrum; [5],50%
same,inhibition at 2 µg/mL,"Trichophyton rubrum; J+4, 2 µg/ml",15%
same,inhibition at 10 µg/mL,"Trichophyton rubrum; J+4, 10 µg/ml",10%
same,inhibition at 20 µg/mL,"Trichophyton rubrum; J+4, 20 µg/ml",0%
same,inhibition at 50 µg/mL,"Trichophyton rubrum; J+4, 50 µg/ml",0%
same,inhibition at 2 µg/mL,"Trichophyton rubrum; J+10, 2 µg/ml",90%
same,inhibition at 10 µg/mL,"Trichophyton rubrum; J+10, 10 µg/ml",60%
same,inhibition at 20 µg/mL,"Trichophyton rubrum; J+10, 20 µg/ml",35%
same,inhibition at 50 µg/mL,"Trichophyton rubrum; J+10, 50 µg/ml",0%
same,inhibition at 2 µg/mL,"Trichophyton rubrum; J+14, 2 µg/ml",100%
same,inhibition at 10 µg/mL,"Trichophyton rubrum; J+14, 10 µg/ml",75%
same,inhibition at 20 µg/mL,"Trichophyton rubrum; J+14, 20 µg/ml",50%
same,inhibition at 50 µg/mL,"Trichophyton rubrum; J+14, 50 µg/ml",0%
same,activity at 20 µg/mL,Microsporum canis; 0 h,0%
same,activity at 20 µg/mL,Microsporum canis; 96 h,0%
same,activity at 20 µg/mL,Microsporum canis; 144 h,5%
same,activity at 20 µg/mL,Microsporum canis; 240 h,45%
same,activity at 20 µg/mL,Microsporum canis; 336 h,60%
same,inhibition at 2 µg/mL,"Microsporum canis; J+4, 2 µg/ml",20%
same,inhibition at 10 µg/mL,"Microsporum canis; J+4, 10 µg/ml",15%
same,inhibition at 20 µg/mL,"Microsporum canis; J+4, 20 µg/ml",0%
same,inhibition at 50 µg/mL,"Microsporum canis; J+4, 50 µg/ml",0%
same,inhibition at 2 µg/mL,"Microsporum canis; J+10, 2 µg/ml",80%
same,inhibition at 10 µg/mL,"Microsporum canis; J+10, 10 µg/ml",60%
same,inhibition at 20 µg/mL,"Microsporum canis; J+10, 20 µg/ml",45%
same,inhibition at 50 µg/mL,"Microsporum canis; J+10, 50 µg/ml",0%
same,inhibition at 2 µg/mL,"Microsporum canis; J+14, 2 µg/ml",100%
same,inhibition at 10 µg/mL,"Microsporum canis; J+14, 10 µg/ml",80%
same,inhibition at 20 µg/mL,"Microsporum canis; J+14, 20 µg/ml",60%
same,inhibition at 50 µg/mL,"Microsporum canis; J+14, 50 µg/ml",0%
same,activity at 10 µg/mL,"Microsporum persicolor; 0 h, J0",0%
same,activity at 10 µg/mL,"Microsporum persicolor; 96 h, J4",0%
same,activity at 10 µg/mL,"Microsporum persicolor; 144 h, J6",20%
same,activity at 10 µg/mL,"Microsporum persicolor; 240 h, J10",40%
same,activity at 10 µg/mL,"Microsporum persicolor; 336 h, J14",75%
same,inhibition at 2 µg/mL,Microsporum persicolor; J+4,20%
same,inhibition at 10 µg/mL,Microsporum persicolor; J+4,0%
same,inhibition at 20 µg/mL,Microsporum persicolor; J+4,0%
same,inhibition at 50 µg/mL,Microsporum persicolor; J+4,0%
same,inhibition at 2 µg/mL,Microsporum persicolor; J+10,85%
same,inhibition at 10 µg/mL,Microsporum persicolor; J+10,40%
same,inhibition at 20 µg/mL,Microsporum persicolor; J+10,20%
same,inhibition at 50 µg/mL,Microsporum persicolor; J+10,0%
same,inhibition at 2 µg/mL,Microsporum persicolor; J+14,100%
same,inhibition at 10 µg/mL,Microsporum persicolor; J+14,75%
same,inhibition at 20 µg/mL,Microsporum persicolor; J+14,25%
same,inhibition at 50 µg/mL,Microsporum persicolor; J+14,0%
